# Source: patent US8003634B2, “Analogs of benzoquinone-containing ansamycins and methods of use thereof” (Infinity Pharmaceuticals, Inc., priority 2003, dated 2011)
# Where a name gives a salt, the structure may show the parent alone. Read-outs that look alike come from different tables or passages of the source.
# Key:
# [1] = water / aqueous solutions
# SKBr3 cells = assay: SKBr3 cell cytotoxicity, Alamar blue; assay type: cell-based; conditions: Homo sapiens, SK-BR-3, 72 h
# Protocol: (§1) The human cancer cell lines SKBr3, MV4-11, K562, SK-MEL-28, LnCAP, and MDA-MB-468 were obtained from the American Type Culture Collection (Manassas, Va.). The multiple myeloma RPMI-8226 and MM1.s cells were from Dr. Teru Hideshima (Jerome Lipper Multiple Myeloma Center, Dana Farber Cancer Institute, Boston, Mass., USA.). All the cell lines were determined to be mycoplasma-free. The cells were maintained in RPMI-1640 medium supplemented with 10% heat-inactivated FBS, 50 units/mL streptomycin and 50 units/mL penicillin, and incubated at 37° C. in 5% CO2. Adherent cells were dissociated with 0.05% trypsin and 0.02% EDTA in phosphate buffer saline (PBS) without calcium and magnesium prior to plating for experimentation.
# SKBr3 Cells were incubated for 72 h with increasing concentrations of the test compound. For the viability studies Alamar blue was added and wells read after a 6 h incubation.
# MM1.s cells = assay: MM1.s cell cytotoxicity, Alamar Blue assay; assay type: cell-based; conditions: Homo sapiens, 72 h
# Protocol: as §1
# Alamar Blue assay. MM1.s cells (50,000/well) were incubated for 72 h with increasing concentrations of the test compound. Alamar blue was added to the wells and fluorescence measured 4 h after incubation at 37° C.
# MV4-11 cells = assay: MV4-11 cell cytotoxicity, Alamar blue; assay type: cell-based; conditions: Homo sapiens, 72 h, 3 days
# Protocol: as §1
# MV4-11 cells were incubated for 3 days with increasing concentrations of the test compound. Cell viability was assessed using an Alamar blue read out.
# MDA-MB-468 cells = assay: MDA-MB-468 cell cytotoxicity, Alamar blue; assay type: cell-based; conditions: Homo sapiens, 72 h
# Protocol: as §1
# MDA-MB-468 Cells were incubated for 72 h with increasing concentrations of the test compound. For the viability studies Alamar blue was added and wells read after 6 h of incubation.
# [2] = tested on: NCI 60 tumor cell line panel; conditions: Developmental Therapeutics Program Website, read-out: mean IC50 over all cell lines in the panel; cited from earlier work
# K562 cells = assay: K562 cell cytotoxicity, Alamar blue; assay type: cell-based; conditions: Homo sapiens
# Protocol: as §1
# K562 cells were incubated with increasing concentrations of the test compound. Cell viability was assessed using an Alamar blue read out
# physchem = conditions: water / aqueous solutions
# [3] = tested on: human multiple myeloma cell line RPMI-8226; assay: Multiple myeloma model, subcutaneous RPMI-8226 tumors; assay type: in vivo; conditions: RPMI-8226 s.c. in male SCID/NOD mice; 100 mg/kg IV three consecutive days per week; after 45 days
# Protocol: The effects of the test compound were studied in a human multiple myeloma cell line RPMI-8226 in male SCID/NOD mice. In this study, male mice were implanted subcutaneously with RPMI-8226 cells (1×10^7 cells). When the average tumor size reached 100 mm^3, animals were randomly assigned to treatment groups (N=10-15/group) to receive either vehicle (50 mM citrate, 50 mM ascorbate, 2.4 mM EDTA adjusted to pH 3.0) or 100 mg/kg (300 mg/m^2) of the test compound three consecutive days per week. The test article or vehicle was administered intravenously (IV) via the tail vein in a volume of 0.2 mL over approximately 20 seconds (sec). The animals were sacrificed after 45 days and tumor volumes compared.
# (§2) The results from the biological activity analysis of the hydroquinones of the invention are presented below. All values are expressed as the mean±SEM. Data analysis consisted of a one way analysis of variance and if appropriate followed by Dunnets test to assess differences between vehicle and treatment groups. Differences are considered significant at p<0.05.
# SKOV-3 cells = assay: Ovarian carcinoma model, SKOV-3 xenograft; assay type: in vivo; conditions: SKOV-3 s.c. in female nu/nu athymic mice; 100 mg/kg IV twice weekly; after 88 days
# Protocol: A study was performed in the SKOV-3 ovarian mouse xenograft model to assess the ability of the test compound to reduce subcutaneous tumor burden. In this study, female nu/nu athymic mice were implanted subcutaneously with SKOV-3 cells (1×10^7 cells). When the average tumor size reached 100 mm^3, animals were randomly assigned to treatment groups (N=10-15/group) to receive either vehicle, the test compound at 100 mg/kg (300 mg/m^2) twice weekly. The test article or vehicle was administered intravenously (IV) via the tail vein in a volume of 0.1 mL over approximately 10 seconds (sec). The animals were sacrificed after 88 days and tumor volumes compared.
# as §2
# Lewis lung cells = assay: Murine Lewis lung model; assay type: in vivo; conditions: Lewis lung cells s.c. in C57B1/6 mice; 75 mg/m^2 MWF for 3 cycles, tail vein; after 25 days
# Protocol: A study was performed in the mouse Lewis lung model to assess the ability of the compounds of the present invention to reduce both subcutaneous tumor burden as well as the incidence of lung metastasis. In this study C57B1/6 mice were implanted subcutaneously with Lewis lung cells (1×10^6 cells). When the average tumor size reached 71 mm^3 animals (N=10-15/group) were randomly assigned to the following treatment groups: vehicle and compound 15 75 mg/m^2 Monday, Wednesday and Friday (MWF) for 3 cycles. Each cycle consisted of […] of treatment. The test article or vehicle was administered via the tail vein in a volume of 0.2 mL over approximately 30 sec. The animals were sacrificed after 25 days and tumor volumes were compared.
# as §2
# LnCAP cells = assay: LnCAP cell cytotoxicity, Alamar blue; assay type: cell-based; conditions: Homo sapiens, 96 h, 4 days
# Protocol: as §1
# Increasing concentrations of the test compound added to LnCAP cells in culture for 4 days and the viability of the cells was measured using Alamar blue.
# PC-3 cells = assay: Prostate carcinoma, PC-3 xenograft models; assay type: in vivo; conditions: PC-3 s.c. in male nu/nu athymic mice; single agent 100 mg/kg twice weekly; after 64 days
# Protocol: Two studies were performed in mouse PC-3 prostate xenograft models to assess the ability of the test compound to reduce subcutaneous tumor burden as a single agent or in combination with current standard of care. In both studies male nu/nu athymic mice were implanted subcutaneously with PC-3 cells (1×10^7 cells). When the average tumor size reached 100 mm^3 animals were randomly assigned to treatment groups (N=10-15/group). In the first study mice received either vehicle, the test compound 100 mg/kg (300 mg/m^2) twice weekly. The test article or vehicle was administered via the tail vein in a volume of 0.2 mL over approximately 20 sec. The animals were sacrificed after 64 days and tumor volumes compared.
# A second study was performed in this model to assess the test compound in combination with the standard of care, Taxotere. […] The animals were sacrificed after 64 days and tumor volumes compared.
# [4] = tested on: Native human Hsp90 protein isolated from HeLa cells; assay: Competitive binding to HSP90, fluorescence polarization assay with BODIPY-GDM; conditions: competitive binding experiment
# Protocol: A 20 nM BODIPY-GDM solution was freshly prepared in FP binding assay buffer [20 mM HEPES-KOH, pH 7.3, 1.0 mM EDTA, 100 mM potassium chloride, 5.0 mM magnesium chloride, 0.01% NP-40, 0.1 mg/mL Bovine γ-globulin (BGG), 1.0 mM DTT, and Complete™ protease inhibitor] from a 20 μM stock solution in DMSO. […] After 3-h incubation at 30° C., fluorescence anisotropy was measured on an EnVision 2100 multilabel plate reader equipped with a 485 nm excitation filter and a 535 nm P/S emission filter (Perkin Elmer, Boston, Mass.).
# A dilution series for each compound was freshly prepared in FP binding assay buffer from 20 μM to 0.20 nM. […] After 3-h incubation at 30° C., fluorescence anisotropy was measured on an EnVision 2100 plate reader.
# Assays were performed under nitrogen atmosphere in a LabMaster glove box (M. Braun, Stratham, N H). […] After 3-h incubation at 30° C., the microplate was brought out of the glove box, and fluorescence anisotropy was immediately measured on an EnVision 2100 plate reader.
# Binding of BODIPY-GDM to Hsp90 results in simultaneous increases in fluorescence anisotropy (FA) and intensity (FI). […]
# [formula] with Hill coefficient forced to 1 for simplicity. From the values of FImax (bound ligand) and FImin (free ligand), a Q factor is calculated by: […]
# [formula] and FA being expressed as the weighted sum of contributions from the free and bound forms of ligand: […]
# SK-MEL-28 cells = assay: SK-MEL-28 cell cytotoxicity, Alamar blue; assay type: cell-based; conditions: Homo sapiens, SK-MEL-28 cells, 2, 3 or 4 days
# Protocol: as §1
# Increasing concentrations of the test compound was added to SK-MEL-28 cells in culture for 2, 3 or 4 days and the viability of the cells was measured using Alamar blue.
# [5] = tested on: MDA-MB-468 breast carcinoma; assay: Breast carcinoma model, subcutaneous MDA-MB-468 tumors; assay type: in vivo; conditions: MDA-MB-468 s.c. in female nu/nu athymic mice; 100 mg/kg IV twice weekly; after 120 days
# Protocol: A study was performed in the MDA-MB-468 breast carcinoma model to assess the ability of the test compound to reduce subcutaneous tumor burden. In this study, female nu/nu athymic mice were implanted subcutaneously with MDA-MB-468 cells (1×10^7 cells). When the average tumor size reached 100 mm^3, animals were randomly assigned (N=10-15/group) to one of the following treatment groups; vehicle or the test compound at 100 mg/kg (300 mg/m^2) twice weekly every week. The test article or vehicle was administered intravenously (IV) via the tail vein in a volume of 0.2 mL over approximately 20 seconds (sec). The animals were sacrificed after 120 days and tumor volumes compared.
# as §2
SMILES,solubility [1],EC50 (SKBr3 cells),EC50 (MM1.s cells),EC50 (MV4-11 cells),EC50 (MDA-MB-468 cells),IC50 [2],EC50 (K562 cells),solubility (physchem),% Tumor Growth Compared to Vehicle [3],% Tumor Growth Compared to Vehicle (SKOV-3 cells),% Tumor Growth Compared to Vehicle (Lewis lung cells),EC50 (LnCAP cells),% Tumor Growth Compared to Vehicle (PC-3 cells),HSP90 inhibition (summary in words) [4],EC50 (SK-MEL-28 cells),% Tumor Growth Compared to Vehicle [5]
"C=CCNc1c(O)cc2c(O)c1C[C@@H](C)C[C@H](OC)[C@H](O)[C@@H](C)/C=C(\C)[C@H](OC(N)=O)[C@@H](OC)/C=C\C=C(/C)C(=O)N2 [hydroquinone of 17-AAG, 17-allylamino-18,21-dihydro-17-demethoxygeldanamycin]",1 to 3 mg/mL,–,–,–,–,–,–,–,–,–,–,–,–,–,–,–
"C=CCNC1=C2C[C@@H](C)C[C@H](OC)[C@H](O)[C@@H](C)/C=C(\C)[C@H](OC(N)=O)[C@@H](OC)/C=C\C=C(/C)C(=O)NC(=CC1=O)C2=O [Compound 17-AAG, 17-allylamino-17-demethoxygeldanamycin, reference compound]",–,0.034 µM,0.306 µM,0.038 µM,0.356 µM,0.12 µM,0.05 µM,–,–,–,–,–,–,–,–,–
"C=CCNc1c(O)cc2c(O)c1C[C@@H](C)C[C@H](OC)[C@H](O)[C@@H](C)/C=C(\C)[C@H](OC(N)=O)[C@@H](OC)/C=C\C=C(/C)C(=O)N2 [Compound 15, HCl Salt of the Hydroquinone of 17-AAG]",–,0.032 µM,0.307 µM,0.025 µM,0.335 µM,–,0.029 µM,> 200 mg/mL,71%,59%,60%,0.073 µM,50%,active HSP90 inhibitors,0.2 µM,76%
